According to patent US20240342292A1, “Compounds for the Degradation of EGFR Kinase” (BeiGene Switzerland GmbH, priority 2021, published 2024):

Legend:
[1] = molecular target: T1, L858R/T790M/C797S EGFR (Homo sapiens, UniProt P00533, C797S/L858R/T790M); assay: EGFR degradation HTRF assay in H1975-clone #25 (LTC) cells; type: cell-based; details: 16h treatment; for DC50: H1975 # 25-LTC (L858R/T790M/C797S), HTRF; for Dmax: NCI-H1975, H1975 # 25-LTC (L858R/T790M/C797S), maximum percentage of degradation
T1 construct: expressed in transfected cells; host or cells: H1975 clone #25 (lentiviral over-expression, endogenous EGFR knocked out by sgRNA)
T1 sequence (P00533 25-1210 T790M/C797S/L858R): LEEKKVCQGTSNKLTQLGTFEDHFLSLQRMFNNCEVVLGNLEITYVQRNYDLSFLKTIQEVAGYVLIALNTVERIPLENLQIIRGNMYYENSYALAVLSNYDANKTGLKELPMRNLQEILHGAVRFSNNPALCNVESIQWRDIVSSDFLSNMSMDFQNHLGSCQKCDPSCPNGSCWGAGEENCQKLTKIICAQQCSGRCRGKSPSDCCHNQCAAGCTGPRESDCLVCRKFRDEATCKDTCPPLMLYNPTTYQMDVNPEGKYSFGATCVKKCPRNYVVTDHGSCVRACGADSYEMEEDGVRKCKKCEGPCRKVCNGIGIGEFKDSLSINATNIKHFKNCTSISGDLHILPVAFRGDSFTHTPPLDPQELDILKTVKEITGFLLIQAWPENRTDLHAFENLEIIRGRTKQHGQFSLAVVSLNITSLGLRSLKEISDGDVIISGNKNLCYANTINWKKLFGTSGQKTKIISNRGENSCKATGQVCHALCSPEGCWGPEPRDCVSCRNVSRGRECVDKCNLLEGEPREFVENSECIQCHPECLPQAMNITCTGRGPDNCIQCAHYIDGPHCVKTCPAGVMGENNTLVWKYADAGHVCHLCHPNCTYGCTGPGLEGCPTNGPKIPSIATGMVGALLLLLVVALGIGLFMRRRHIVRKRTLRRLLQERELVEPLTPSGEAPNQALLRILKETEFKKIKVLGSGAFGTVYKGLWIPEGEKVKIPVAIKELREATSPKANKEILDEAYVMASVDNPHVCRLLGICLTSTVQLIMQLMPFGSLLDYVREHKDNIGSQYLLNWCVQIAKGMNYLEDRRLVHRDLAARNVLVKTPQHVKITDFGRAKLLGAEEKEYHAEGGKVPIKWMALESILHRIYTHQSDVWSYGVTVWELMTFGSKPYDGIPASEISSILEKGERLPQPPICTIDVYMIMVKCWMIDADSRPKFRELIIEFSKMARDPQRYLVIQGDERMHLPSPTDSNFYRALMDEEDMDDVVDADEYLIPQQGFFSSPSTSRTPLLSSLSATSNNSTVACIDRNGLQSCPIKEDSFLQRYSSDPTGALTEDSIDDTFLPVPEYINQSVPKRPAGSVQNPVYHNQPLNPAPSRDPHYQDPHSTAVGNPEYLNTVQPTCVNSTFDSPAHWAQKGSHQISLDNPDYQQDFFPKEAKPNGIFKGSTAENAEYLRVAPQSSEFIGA
In short: (§1)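 Engineered H1975 lines (exogenous mutant EGFR, endogenous copies knocked out, single clones sequence-verified); 16 h compound, 37 °C/5% CO2, 0.2% DMSO; top 10 uM, 5-fold, 8 pts; lysis 1 h RT, HTRF antibodies overnight RT; 4-parameter logistic fit → DC50.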

[2] = system: Del19/T790M/C797S EGFR; assay: EGFR degradation HTRF assay in H1975-clone #28 (DTC) cells; type: cell-based; details: H1975 # 28 DTC (Del19/T790M/C797S), 16h treatment; for DC50: HTRF; for Dmax (%): maximum percentage of degradation
In short: as §1

DC50 [1]	Dmax [1]	DC50 [2]	SMILES	Dmax (%) [2]
0.429 nM	92.5%	0.614 nM	Cc1cc2cc(n1)-c1cnn(C)c1OCCC[C@@H](C)CN1/C(=N/C2=O)Nc2ccc(C(=O)N[C@H]3CCN(CCc4cc(F)c([C@H]5CCC(=O)NC5=O)c(F)c4)[C@@H](C)C3)cc21 [Example 270, (R,E)-N—((2S,4S)-1-(4-((R)-2,6-dioxopiperidin-3-yl)-3,5-difluorophenethyl)-2-methylpiperidin-4-yl)-1^1,2^6,7-trimethyl-3-oxo-5^2,5^3-dihydro-1^1H,5^1H-11-oxa-4-aza-5(2,1)-benzo[d]imidazola-2(2,4)-pyridina-1(4,5)-pyrazolacycloundecaphane-5^6-carboxamide]	81.16%
0.557 nM	81.2%	1.15 nM	Cc1cc2cc(n1)-c1cnn(C)c1OCCC[C@@H](C)CN1/C(=N/C2=O)Nc2ccc(C(=O)N[C@H](C)C3CCN(CCc4cc(F)c([C@H]5CCC(=O)NC5=O)c(F)c4)CC3)cc21 [Example 271, (R,E)-N—((R)-1-(1-(4-((R)-2,6-dioxopiperidin-3-yl)-3,5-difluorophenethyl)piperidin-4-yl)ethyl)-1^1,2^6,7-trimethyl-3-oxo-5^2,5^3-dihydro-1^1H,5^1H-11-oxa-4-aza-5(2,1)-benzo[d]imidazola-2(2,4)-pyridina-1(4,5)-pyrazolacycloundecaphane-5^6-carboxamide]	70.36%
1.36 nM	87.2%	1.52 nM	Cc1cc2cc(n1)-c1cnn(C)c1OCCC[C@@H](C)CN1/C(=N/C2=O)Nc2ccc(C(=O)N(C)[C@@H](C)C3CCN(CCc4cc(F)c(C5CCC(=O)NC5=O)c(F)c4)CC3)cc21 (stereo partly drawn) [Example 272, (R,E)-N—((S)-1-(1-(4-((R)-2,6-dioxopiperidin-3-yl)-3,5-difluorophenethyl)piperidin-4-yl)ethyl)-N,1,2^6,7-tetramethyl-3-oxo-5^2,5^3-dihydro-1^1H,5^1H-11-oxa-4-aza-5(2,1)-benzo[d]imidazola-2(2,4)-pyridina-1(4,5)-pyrazolacycloundecaphane-5^6-carboxamide]	76.03%
4.58 nM	88.8%	0.489 nM	Cc1cc2cc(n1)-c1cnn(C)c1OCCC[C@@H](C)CN1/C(=N/C2=O)Nc2ccc(C(=O)N(C)C[C@@H]3CCN(CCc4cc(F)c([C@H]5CCC(=O)NC5=O)c(F)c4)CC3(F)F)cc21 [Example 273, (R,E)-N—(((S)-1-(4-((R)-2,6-dioxopiperidin-3-yl)-3,5-difluorophenethyl)-3,3-difluoropiperidin-4-yl)methyl)-N,1′,2,7-tetramethyl-3-oxo-5^2,5^3-dihydro-1^1H,5^1H-11-oxa-4-aza-5(2,1)-benzo[d]imidazola-2(2,4)-pyridina-1(4,5)-pyrazolacycloundecaphane-5^6-carboxamide]	66.66%
1.63 nM	69.2%	0.691 nM	Cc1cc2cc(n1)-c1cnn(C)c1OCCC[C@@H](C)CN1/C(=N/C2=O)Nc2ccc(C(=O)N(C)C[C@H]3CCN(CCc4cc(F)c([C@H]5CCC(=O)NC5=O)c(F)c4)CC3(F)F)cc21 [Example 274, (R,E)-N—(((R)-1-(4-((R)-2,6-dioxopiperidin-3-yl)-3,5-difluorophenethyl)-3,3-difluoropiperidin-4-yl)methyl)-N,1^1,2^6,7-tetramethyl-3-oxo-5^2,5^3-dihydro-1^1H,5^1H-11-oxa-4-aza-5(2,1)-benzo[d]imidazola-2(2,4)-pyridina-1(4,5)-pyrazolacycloundecaphane-5^6-carboxamide]	48.56%
1.01 nM	88.9%	0.798 nM	Cc1cc2cc(n1)-c1cnn(C)c1OCCC[C@@H](C)CN1/C(=N/C2=O)Nc2ccc(C(=O)N(C)CC(F)(F)C3CCN(CCc4cc(F)c([C@H]5CCC(=O)NC5=O)c(F)c4)CC3)cc21 [Example 275, (R,E)-N-(2-(1-(4-((R)-2,6-dioxopiperidin-3-yl)-3,5-difluorophenethyl)piperidin-4-yl)-2,2-difluoroethyl)-N,1^1,2^6,7-tetramethyl-3-oxo-5^2,5^3-dihydro-1^1H,5^1H-11-oxa-4-aza-5(2,1)-benzo[d]imidazola-2(2,4)-pyridina-1(4,5)-pyrazolacycloundecaphane-5^6-carboxamide]	78.92%
0.592 nM	88%	1.74 nM	Cc1cc2cc(n1)-c1cnn(C)c1OCCC[C@@H](C)CN1/C(=N/C2=O)Nc2ccc(C(=O)N(C)C[C@H]3CCCN(CCc4cc(F)c([C@H]5CCC(=O)NC5=O)c(F)c4)C3)cc21 [Example 276, (R,E)-N—(((S)-1-(4-((R)-2,6-dioxopiperidin-3-yl)-3,5-difluorophenethyl)piperidin-3-yl)methyl)-N,1^1, 2^6,7-tetramethyl-3-oxo-5^2,5^3-dihydro-1^1H,5^1H-11-oxa-4-aza-5(2,1)-benzo[d]imidazola-2(2,4)-pyridina-1(4,5)-pyrazolacycloundecaphane-5^6-carboxamide]	71.19%
0.804 nM	74.2%	0.567 nM	Cc1cc2cc(n1)-c1cnn(C)c1OCCC[C@@H](C)CN1/C(=N/C2=O)Nc2ccc(C(=O)N(C)C3CCC(N(C)CCc4cc(F)c([C@H]5CCC(=O)NC5=O)c(F)c4)CC3)cc21 (stereo partly drawn) [Example 278, (R,E)-N-(4-((4-((R)-2,6-dioxopiperidin-3-yl)-3,5-difluorophenethyl)(methyl)amino)cyclohexyl)-N,1^1,2^6,7-tetramethyl-3-oxo-5^2,5^3-dihydro-1^1H,5^1H-11-oxa-4-aza-5(2,1)-benzo[d]imidazola-2(2,4)-pyridina-1(4,5)-pyrazolacycloundecaphane-5^6-carboxamide]	52.21%
1.33 nM	83%	0.75 nM	Cc1cc2cc(n1)-c1cnn(C)c1OCCC[C@@H](C)CN1/C(=N/C2=O)Nc2ccc(C(=O)N(C)CCC3CCN(c4cc(F)c([C@H]5CCC(=O)NC5=O)c(F)c4)CC3)cc21 [Example 279, (R,E)-N-(2-(1-(4-((R)-2,6-dioxopiperidin-3-yl)-3,5-difluorophenyl)piperidin-4-yl)ethyl)-N,1^1,2^6,7-tetramethyl-3-oxo-5^2,5^3-dihydro-1^1H,5^1H-11-oxa-4-aza-5(2,1)-benzo[d]imidazola-2(2,4)-pyridina-1(4,5)-pyrazolacycloundecaphane-5^6-carboxamide]	82.08%
0.44 nM	88.5%	0.657 nM	Cc1cc2cc(n1)-c1cnn(C)c1OCCC[C@@H](C)CN1/C(=N/C2=O)Nc2ccc(C(=O)N(C)CCN3CCN(c4cc(F)c([C@H]5CCC(=O)NC5=O)c(F)c4)CC3)cc21 [Example 280, (R,E)-N-(2-(4-(4-((R)-2,6-dioxopiperidin-3-yl)-3,5-difluorophenyl)piperazin-1-yl)ethyl)-N,1^1,2^6,7-tetramethyl-3-oxo-5^2,5^3-dihydro-1^1H,5^1H-11-oxa-4-aza-5(2,1)-benzo[d]imidazola-2(2,4)-pyridina-1(4,5)-pyrazolacycloundecaphane-5^6-carboxyamide]	77.24%
0.411 nM	90.4%	0.501 nM	CCN(CCN1CCN(c2cc(F)c([C@H]3CCC(=O)NC3=O)c(F)c2)CC1)C(=O)c1ccc2c(c1)N1C[C@H](C)CCCOc3c(cnn3C)-c3cc(cc(C)n3)C(=O)/N=C/1N2 [Example 281, (R,E)-N-(2-(4-(4-((R)-2,6-dioxopiperidin-3-yl)-3,5-difluorophenyl)piperazin-1-yl)ethyl)-N-ethyl-1′,2^6,7-trimethyl-3-oxo-5^2,5^3-dihydro-1^1H,5^1H-11-oxa-4-aza-5(2,1)-benzo[d]imidazola-2(2,4)-pyridina-1(4,5)-pyrazolacycloundecaphane-5^6-carboxamide]	75.01%
0.752 nM	82.9%	0.657 nM	Cc1cc2cc(n1)-c1cnn(C)c1OCCC[C@@H](C)CN1/C(=N/C2=O)Nc2ccc(C(=O)N(CCN3CCN(c4cc(F)c([C@H]5CCC(=O)NC5=O)c(F)c4)CC3)C(C)C)cc21 [Example 282, (R,E)-N-(2-(4-(4-((R)-2,6-dioxopiperidin-3-yl)-3,5-difluorophenyl)piperazin-1-yl)ethyl)-N-isopropyl-1^1,2^6,7-trimethyl-3-oxo-5^2,5^3-dihydro-1^1H,5^1H-11-oxa-4-aza-5(2,1)-benzo[d]imidazola-2(2,4)-pyridina-1(4,5)-pyrazolacycloundecaphane-5^6-carboxamide]	77.76%
0.494 nM	80.2%	0.617 nM	Cc1cc2cc(n1)-c1cnn(C)c1OCCC[C@@H](C)CN1/C(=N/C2=O)Nc2ccc(C(=O)N(CCN3CCC(c4cc(F)c([C@H]5CCC(=O)NC5=O)c(F)c4)CC3)C(C)C)cc21 [Example 283, (R,E)-N-(2-(4-(4-((R)-2,6-dioxopiperidin-3-yl)-3,5-difluorophenyl)piperidin-1-yl)ethyl)-N-isopropyl-1^1,2^6,7-trimethyl-3-oxo-5^2,5^3-dihydro-1^1H,5^1H-11-oxa-4-aza-5(2,1)-benzo[d]imidazola-2(2,4)-pyridina-1(4,5)-pyrazolacycloundecaphane-5^6-carboxamide]	72.52%
